Reference: paper PMC9318133 (International Journal of Molecular Sciences, 2022)

Tests used:
human CB1 receptors = molecular target: T1, human CB1 receptors (Homo sapiens, UniProt P21554); assay: [3H]-CP-55,940 competition binding, CHO cell membranes transfected with human CB1 receptors
T1 construct: host or cells: CHO cells
Protocol: To obtain membranes, cells were washed with phosphate-buffered saline (PBS) and scraped off with ice-cold hypotonic buffer (5 mM Tris HCl, 2 mM EDTA, pH 7.4). The cell suspension was homogenized with a Polytron and then centrifuged for 30 min at 40,000× g. The membrane pellet was suspended in 50 mM Tris HCl buffer (pH 7.4) containing 2.5 mM ethylenediaminetetraacetic acid (EDTA), 5 mM MgCl2, and 0.5 mg/mL bovine serum albumin (BSA) for CB1 receptors or in 50 mM Tris HCl (pH 7.4), 1 mM EDTA, 5 mM MgCl2, and 0.5% BSA for CB2 receptors.
For human cannabinoid receptors, membranes obtained from CHO cells transfected with human CB1 or CB2 receptors (2 µg protein/100 µL) were used. Competition binding experiments at murine cannabinoid receptors were performed with mouse brain membranes (40 µg protein/100 µL) or with mouse spleen membranes (80 µg protein/100 µL) for CB1 receptors or CB2 receptors, respectively. […] Bound and free radioactivity were separated by filtering the assay mixture through Whatman GF/C glass fiber filters using a Brandel cell harvester (Brandel Instruments, Unterföhring, Germany).
The protein concentration was determined according to a Bio-Rad method with bovine serum albumin as a reference standard. Inhibitory binding constants, Ki, were calculated from the IC50 values according to the Cheng and Prusoff equation:Ki = IC50/(1 + [C*]/KD*) where [C*] is the concentration of the radioligand and KD* its dissociation constant. Functional experiments were analyzed by non-linear regression analysis using the equation for a sigmoid concentration–response curve (GraphPad Prism, San Diego, CA, USA). All the data are expressed as the mean ± SEM of three independent experiments.

[1] = system: fEPSP of CA1 area of mouse hippocampal slice; assay: Electrophysiological recording of fEPSP in hippocampal slices; assay type: cell-based; settings: for fEPSP slope, % changes compared to control condition: steady state
Protocol: Procedures for tissue preparation are the same as those described by Ossato et al., 2016 [45]. In brief, after mouse decapitation, the head was immediately chilled in refrigerated artificial cerebrospinal fluid (aCSF, 0 °C) of the following composition (in mM): NaCl, 126; KCl, 2; KH2PO4, 1.25; NaHCO3, 26; MgSO4, 2.0; CaCl2, 2.5; d-glucose, 10. After 1 min, the brain was extracted to isolate the hippocampus and then placed in ice-cold artificial cerebrospinal fluid (aCSF). All solutions were saturated with 95% O2/5% CO2. Transverse hippocampal slices (425 μm thick) were cut with a tissue chopper and then placed for almost 90 min in a Haas-style incubation chamber for recovery before recording.
A single slice was transferred into a submerged-type recording chamber (3 mL total volume) and continuously superfused (3.0 mL/min) with warmed (32–33 °C) aCSF. WINLTP 2.10 computer software was used for stimulus triggering, PC recording, and analysis. Synaptic responses of CA1 pyramidal neurons were elicited by electrical stimulation of the Schaffer collateral/commissural pathway. Single stimulation pulses (80 µs duration; 0.05 Hz) were delivered by mean of a concentric bipolar electrode (o.d. 125 μm, FHC, USA) connected to a Grass S11 stimulator driving a PSIU6 constant current stimulus isolation unit. To record the fEPSPs, borosilicate glass electrodes fabricated using a microelectrode puller (P97, Sutter Instruments) and filled with aCSF (1.5 ± 0.5 MΩ), inserted in the distal third of the stratum radiatum and 200–300 µm away from stimulating electrodes, were used. The maximal fEPSPs response was reached by adjusting the recording electrode depth. Recorded potentials were amplified (Axoprobe 1A DC-coupled—Cyberamp 320, Molecular Devices, Sunnyvale, CA, USA) and filtered (5.0 kHz) prior to A/D conversion. Upon 10 min of stable synaptic response, a stimulus–response curve (SRC) was generated as previously described to extrapolate a stimulation intensity evoking 70% of maximal fEPSP, to be used throughout the experiment. […] To investigate whether the vehicle had any effect on synaptic activity, the superfusion inlet was switched to a reservoir containing aCSF plus the amount of vehicle present for the corresponding drug concentration (sham application), before switching to the solution also including the drug, for comparison. All reservoirs and tubing were on glass or Teflon to avoid the capturing of cannabinoids by plastic or silicon parts.
We analyzed data from in vitro recordings as previously described. […] Effect of treatment was considered steady state when stable +/− 5% for 10 min.

[2] = Plasma (and brain) levels of JWH-175 and JWH-018 in mice by LC-MS/MS; assay type: in vivo, mouse; settings: for presence in the brain tissue of mice systemically treated with JWH-175: data not shown
Protocol: For the in vivo studies, three different groups of mice were selected. […] Urine specimens were collected from mice individually placed inside metabolic cages (Ugo Basile SRL, Gemonio (VA), Italy) with free access to water and food. The same dose of JWH-175 was administered to the second group, and behavioral tests were performed before the blood collection. Tests and sampling were carried out, at 0, 30, 60, and 300 min, on a sub-group of six mice at each time interval. The same behavioral studies and blood sampling were performed on the third group, to which JWH-018 (10 mg/kg) was injected. Blood samples (mean total volume: 500 μL) were collected by submandibular blood collection technique into 1 mL vials containing EDTA (4 mg/mL of blood) as preservative and anticoagulant. After each blood withdrawal, an equal volume of saline solution was subcutaneously injected into mice to maintain volume and osmotic homeostasis. Plasma from collected blood and urine samples were stocked at −20 °C until the analysis.
For blood metabolic profile, samples were centrifugated at 9000× g rpm for 8 min to obtain plasma. Then, 200 µL of the supernatant was added to 500 μL of acetonitrile and centrifugated at 13,000× g rpm for 3 min. The aqueous layer was then collected and added to 50 μL of internal standard solution (10 μg/mL) and 500 μL of phosphate buffer (0.8 M, pH 7.4). Samples were then incubated for 1 h at 55 °C. After hydrolysis, samples were extracted with 5 mL of ethyl acetate. The organic solvent was then dried under nitrogen flow at 40 °C, and the dry residue was resolved in 50 μL of mobile phase and an aliquot of 10 µL was injected into the LC-MS systems.
Samples were analyzed using an Agilent 1200 series high-performance liquid chromatography (HPLC) instrument equipped with a SUPELCO C18 column (15 cm × 2.1 mm × 5 µm) coupled with a Sciex 5500QTRAP triple quadrupole mass spectrometer (Sciex, Milan, Italy) with an ESI source operated in positive ionization mode. Analyses were carried out at a constant flow rate of 250 µL/min using ultra-purified water, 0.1% formic acid (A), and acetonitrile 0.1% formic acid (B) as mobile phase. The gradient started at 5% eluent B, was increased to 65% eluent B in 7 min and after 4 min to 95% eluent B in 2 min, held for 4.5 min, decreased to starting conditions of 5% eluent B in 0.31 min, and held for 2 min for re-equilibration
Multiple reaction monitoring (MRM) was used as the acquisition mode (see Table 3). The MRM method was optimized starting from the protocol employed in our laboratory.

CD-1 mice = assay: Visual object response test; assay type: in vivo, mouse

T1 sequence (P21554 whole entry): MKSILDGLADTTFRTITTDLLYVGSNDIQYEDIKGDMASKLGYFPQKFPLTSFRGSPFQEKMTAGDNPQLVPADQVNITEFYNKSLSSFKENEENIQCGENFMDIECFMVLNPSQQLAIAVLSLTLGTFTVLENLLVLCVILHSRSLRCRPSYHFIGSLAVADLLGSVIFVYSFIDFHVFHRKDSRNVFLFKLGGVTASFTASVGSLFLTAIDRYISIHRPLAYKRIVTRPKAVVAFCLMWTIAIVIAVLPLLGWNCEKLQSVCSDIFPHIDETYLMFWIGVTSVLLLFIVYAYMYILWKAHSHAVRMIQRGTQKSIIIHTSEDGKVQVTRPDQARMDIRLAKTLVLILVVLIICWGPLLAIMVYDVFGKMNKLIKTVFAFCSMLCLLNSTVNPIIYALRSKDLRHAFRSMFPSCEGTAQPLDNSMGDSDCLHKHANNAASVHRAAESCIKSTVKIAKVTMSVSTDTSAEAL

SMILES | selectivity index (ratio between the Ki value to human CB2 and the Ki value to human CB1) (human CB1 receptors; human CB2 / human CB1) | fold higher affinity than JWH-175 at human CB1 receptors (human CB1 receptors; ratio of Ki values, CHO cell membranes) [fold] | fEPSP slope, % changes compared to control condition ([1]; 0.1 µM) [%] | fEPSP slope, % changes compared to control condition ([1]; 0.3 µM) [%] | fEPSP slope, % changes compared to control condition ([1]; 1 µM, last 3 min of recording) [%] | time of peak plasmatic concentration of JWH-018 ([2]; JWH-018 10 mg/kg i.p., mouse plasma) [min] | presence in the brain tissue of mice systemically treated with JWH-175 [2] | Ki (human CB1 receptors) [nM] | effect on fEPSP ([1]; 0.01−0.3 µM) | times less potent than JWH-018 in inhibiting fEPSP ([1]; CA1 hippocampal slices, 0.01–1 µM) | time after administration within which JWH-175 itself was detected in plasma ([2]; JWH-175 10 mg/kg i.p., mouse plasma) [min] | effect on visual object response (CD-1 mice; 0.01–30 mg/kg i.p., monitored over 5 h) | ED50 (CD-1 mice; Mus musculus, ip, mice, ED50 + SEM, non-linear regression) [mg/kg]
CCCCCn1cc(C(=O)c2cccc3ccccc23)c2ccccc21 [JWH-018, 1-naphthalenyl(1-pentyl-1H-indol-3-yl)-methanone] | 0.9 | 2.71 | −34.7 ± 7.9 | −40.4 ± 8.4 | −48.8 ± 7.6 | 30 | presence |  |  |  |  |  | 
CCCCCn1cc(Cc2cccc3ccccc23)c2ccccc21 [JWH-175, 3-(1-naphthalenylmethyl)-1-pentyl-1H-indole] |  |  |  |  | −23.7 ± 5.7 |  | only traces | 25.8 ± 1.9 | failed to affect fEPSP | about 10 times | ≤ 30 | dose-dependently reduced the visual object response | 9.6 ± 0.02
